Source: PMC3744471, “Mitochondria Are the Target Organelle of Differentiation-Inducing Factor-3, an Anti-Tumor Agent Isolated from Dictyostelium Discoideum” (PLoS ONE, 2013)

What was measured:
HeLa cells [1] = assay: Cell growth assay (Alamar blue), HeLa; type: cell-based, human; conditions: 3 days; for Effect on cell growth (relative cell number): HeLa; for IC50: Homo sapiens, 72 h, HeLa cells, Alamar blue
Protocol: HeLa, LM8, and 3T3-L1 cells were cultured for 3 days at 2.5–5×10^3 cells/well in 12-well plates with each well filled with 1 ml of DMEM-FBS (for HeLa and 3T3-L1) or MEM-α-FBS (for LM8) together with drugs at various concentrations. Then, the incubation media were discarded and the cells were washed with 1 ml of PBS(–) (20 mM phosphate buffered saline, pH 7.4) and incubated with 1 ml of fresh DMEM-FBS (HeLa and 3T3-L1) or MEM-α-FBS (LM8) containing 5% (v/v) of Alamar blue (a cell number indicator; Wako Pure Chemical Industries, Osaka, Japan) until the color changed. […] Relative cell numbers were determined for each concentration for each drug and the IC50 was determined from the dose-response curves.

3T3-L1 cells = assay: Cell growth assay (Alamar blue), 3T3-L1; type: cell-based, mouse; conditions: for Effect on cell growth in 3T3-L1 cells: BODIPY-DIF-3 5–20 µM, CCCP 2–10 µM, 4 days; for IC50: Mus musculus, 72 h, 3T3-L1 cells, 3 days, Alamar blue
Protocol: HeLa, LM8, and 3T3-L1 cells were cultured for 3 days at 2.5–5×10^3 cells/well in 12-well plates with each well filled with 1 ml of DMEM-FBS (for HeLa and 3T3-L1) or MEM-α-FBS (for LM8) together with drugs at various concentrations. Then, the incubation media were discarded and the cells were washed with 1 ml of PBS(–) (20 mM phosphate buffered saline, pH 7.4) and incubated with 1 ml of fresh DMEM-FBS (HeLa and 3T3-L1) or MEM-α-FBS (LM8) containing 5% (v/v) of Alamar blue (a cell number indicator; Wako Pure Chemical Industries, Osaka, Japan) until the color changed. The relative cell number was assessed by measuring absorbance at 570 nm (reference at 595 nm) as described previously, [14]; DIF-related compounds and BODIPY-conjugated compounds hardly disturbed the cell number assessment with Alamar blue (data not shown), probably because the additive compounds were washed out when cell number was assessed. For determination of the 50% inhibitory concentration (IC50) of each drug, the cells were cultured for 3 days in the presence of each drug at various concentrations. Relative cell numbers were determined for each concentration for each drug and the IC50 was determined from the dose-response curves.
Supplementary file pone.0072118.s002.tif: Figure S2 Effects of BODIPY-DIF-3 and CCCP on cell growth, and cellular localization of BODIPY-DIF-3 in 3T3-L1 cells. (A) Cells were incubated for 4 days with 5–20 µM of BODIPY-DIF-3 (closed circles) or 2–10 µM of CCCP (closed triangles), and relative cell number was assessed by the use of Alamar blue. Data are the mean values and SD (bars) of three independent experiments. (B) Cells were incubated for 0.5 h or 3 days with 20 µM of BODIPY-DIF-3, washed free of the additive, and observed microscopically. (C) Cells were incubated for 0.5 h with BODIPY-DIF-3 (20 µM), Hoechst (0.1 µg/ml), and MitoTracker (0.1 µM), washed free of the additives, and observed by using a high-magnification fluorescence microscope. (D) Cells were incubated for 3 days with BODIPY-DIF-3 (20 µM) and then for 0.5 h with Hoechst (0.1 µg/ml) and MitoTracker (0.1 µM). Cells were washed free of the additives and observed by using a high-magnification fluorescence microscope. (TIF) Click here for additional data file.

HeLa cells [2] = assay: Electron microscopy of organelle morphology; type: cell-based, human; conditions: 3 days, Bu-DIF-3 5 µM, BODIPY-DIF-3 20 µM
Protocol: HeLa cells were incubated for 3 days with 2 ml DMEM-FBS containing 0.2% DMSO and 5 µM Bu-DIF-3 or 20 µM BODIPY-DIF-3 in 35-mm plastic dishes at 2×10^4 cells/dish. The cells were fixed at 4°C for 30 min with PB (0.1 M phosphate buffer, pH 7.4) containing 2% paraformaldehyde and 2% glutaraldehyde and then with PB containing 2% glutaraldehyde at 4°C overnight. The cell samples were rinsed 3 times with PB for 30 min each, followed by post fixation with 2% OsO4 in PB at 4°C for 1 h. The samples were dehydrated through a graded ethanol (EtOH) series starting with 50% and 70% EtOH for 5 min each at 4°C, then 90% EtOH for 5 min at room temperature, followed by three changes of 100% EtOH for 5 min each at room temperature. The samples were then transferred to a resin (Quetol-812; Nisshin EM Co., Tokyo, Japan) and polymerized at 60°C for 48 h. Ultra-thin (70 nm) sections were cut with an ultramicrotome (ULTRACUT UCT; Leica, Wetzlar, Germany), collected onto copper grids, stained with 2% uranyl acetate at room temperature for 15 min, and then rinsed with distilled water. The sections were then stained with Lead stain solution (Sigma-Aldrich) at room temperature for 3 min. The sections were observed under a transmission electron microscope (JEM-1200Ex; JEOL Ltd., Tokyo, Japan) at an acceleration voltage of 80 kV. Digital images (2048×2048 pixels) were taken with a charge-coupled device camera (VELETA; Olympus Soft Imaging Solutions GmbH, Tokyo, Japan).

[3] = test system: mitochondrial malate dehydrogenase (mMDH); design: method as in PMID 20173310; conditions: cited from earlier work
[4] = test system: calmodulin-dependent cyclic nucleotide phosphodiesterase (PDE1); design: method as in PMID 15059913; conditions: cited from earlier work

SMILES	Effect on cell growth (relative cell number) (HeLa cells [1]; 5–20 µM (Bu-BODIPY up to 20 µM))	IC50 (HeLa cells [1]) [µM]	Effect on cell growth in 3T3-L1 cells (3T3-L1 cells)	IC50 (3T3-L1 cells) [µM]	Lipid bodies in treated cells (HeLa cells [2])	Number of swollen mitochondria (HeLa cells [2])	Total number of mitochondria (HeLa cells [2])	Effect on cell growth (relative cell number) (HeLa cells [1]; 20 µM)	Effect on cell growth (relative cell number) (HeLa cells [1]; CCCP 10 µM, azide 0.01%)	Binding to and inhibition of mMDH [3]	Inhibition of PDE1 [4]
CCCCCC(=O)c1c(O)cc(OCCCCNC(=O)CCC2=[N+]3C(=Cc4c(C)cc(C)n4[B-]3(F)F)C=C2)c(Cl)c1O [BODIPY-DIF-3]	suppressed in a dose-dependent manner	13.2	dose-dependently suppressed cell growth	20	many lipid bodies were observed	increase in the number of swollen mitochondria	tended to cause a decrease				
CCCCCC(=O)c1c(O)cc(OCCCC)c(Cl)c1O [Bu-DIF-3, 1-(3-chloro-2,6-dihydroxy-4-butoxyphenyl)hexan-1-one]		3.2		4.3	many lipid bodies were observed	increase in the number of swollen mitochondria	tended to cause a decrease	significantly suppressed			
N#CC(C#N)=NNc1cccc(Cl)c1 [CCCP, carbonyl cyanide m-chlorophenylhydrazone, reference compound]		5.2	dose-dependently suppressed cell growth	7.5					significantly suppressed		
CCCCCC(=O)c1c(O)cc(OC)c(Cl)c1O [DIF-3, 1-(3-chloro-2,6-dihydroxy-4-methoxyphenyl)hexan-1-one]		14.5		> 20				significantly suppressed		neither binds nor inhibits mMDH	direct inhibitors of PDE1
